This passage reports EC50, IC50 and outcome results from PubChem BioAssay AID179 (DTP/NCI, 2004).

In the test the test system is CEM cells HIV-1 protection, formazan growth assay. The test can be described thus: NCI AIDS Antiviral Assay. Particulars: for IC50: measured here: growth of uninfected CEM cells. The essentials: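 Human CEM cells, uninfected and HIV-1-infected, exposed to five drug concentrations; growth measured by soluble formazan assay and scored as percent protection from infection, with protecting compounds retested.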

Values joined by “and” are separate entries in the source; they are usually repeats but may differ in a detail not shown here. Equal entries are not always repeated. Active and inactive are the calls of the source.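 Rule for the calls: active = compounds giving half or more protection of infected cells from virus-caused growth loss, again on retest; inactive = the rest.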

With `Cc1[nH]n(-c2nc(-c3ccccc3)cc(=O)[nH]2)c(=O)c1CCO`, the EC50 was more than 200 µM and the IC50 was more than 200 µM.
`CS(=O)(=O)OCC(CCl)(CCl)CCl`: the EC50 was more than 933 µM and the IC50 was 661 µM.
Consider `N/C(CSCCSC/C(N)=N/O)=N\O`, for which the EC50 was more than 200 µM and the IC50 was more than 200 µM.
Turning to `Cc1nnc2nc(-c3ccccc3)nc(-c3ccccc3)n12`, the EC50 was more than 200 µM and the IC50 is more than 200 µM.
As for `C=CCc1c(O)c2c(c3oc(=O)cc(C)c13)CC(C)O2` (stereo unspecified), the result was inactive.
Take `COc1cccc2c(=O)c3c(n(C)c12)OC(C(C)C)C3` (stereo unspecified): the EC50 was more than 339 µM and the IC50 came to 126 µM.
The matching figures for `N#Cc1ccc(C=C2C(=O)c3ccccc3C2=O)cc1`: more than 72.4 µM and 46.8 µM.
The matching figures for `COc1cccc(/S(C)=N/S(=O)(=O)c2ccc(C)cc2)c1` (stereo unspecified): more than 776 µM and 214 µM.
With `CCOC(=O)C(C)(C)Oc1ccc(Cl)cc1`, the EC50 was more than 200 µM and the IC50 was more than 200 µM.
Regarding `Cc1ccc(-c2oc3ccccc3c(=O)c2O)cc1`, the EC50 is more than 200 µM and the IC50 is 53.7 µM.
Take `O=C(Nc1cccc2ccccc12)N1CCCC(Br)C1` (stereo unspecified): the EC50 is more than 200 µM and the IC50 turned out to be 195 µM.
For `CNC(=O)OCc1nc(N=[N+]=[N-])n(C)c1COC(=O)NC`, in that order: more than 200 µM and 42.7 µM.
Take `Cn1ccnc1CCc1c(Cl)cccc1Cl`: the EC50 was more than 851 µM and the concentration for half-maximal inhibition (IC50) was determined as 123 µM.
On to `COC(=O)C1Cc2c([nH]c3ccccc23)C(C2CCCCC2)N1` (stereo unspecified), for which the outcome was inactive.
On to `[O]=[Sb]([OH])([OH])[c]1ccccc1`, for which the EC50 was more than 200 µM; the IC50 was 77.6 µM and > 200 µM.
For the molecule `C=CCC1(C(=O)OC)CCC/C(=N\O)C1` (stereo unspecified), the EC50 was more than 64.6 µM and the IC50 was more than 64.6 µM.
Turning to `CCN(CC)CCCNc1ccc([N+](=O)[O-])c2nc3ccc(OC)cc3c(NCCCN(CC)CC)c12`, the EC50 was more than 50.1 µM and the IC50 came out at 0.234 µM.
The matching figures for `CN(C)CCN1C(=O)CC(c2ccccc2)Sc2ccccc21` (stereo unspecified): more than 245 µM and more than 245 µM.
`C/C(Cc1ccccc1)=N\NC(N)=S`: the result was inactive.
In the case of `O=C1/C(=C/c2ccc(Cl)cc2)NC(=S)N1CN1CCOCC1`, the EC50 was more than 200 µM and the IC50 came to 32.4 µM.
As to `NCC=C1C2CC3CC(C2)CC1C3`, the result was inactive.
In the case of `Cc1cc(C)c(C2CC(O)C(CO)O2)cc1C` (stereo unspecified), the EC50 is more than 200 µM and the IC50 was more than 200 µM.
`CC(C)=CCC[C@@H](C)C1=C(O)C(Nc2ccccc2I)=C(C)C(=O)C1=O`: the EC50 is more than 200 µM and the IC50 was 6.76 µM.
Consider `NC(C(=O)O)C(O)C(=O)O` (stereo unspecified), for which the outcome was inactive.
Consider `O=C(/C=C/c1ccc(O)cc1)c1cc(O)cc(O)c1`, for which the EC50 was more than 200 µM and the IC50 was 20.9 µM.
In the case of `CCOC(=O)NC(Nc1ccc(S(=O)(=O)Nc2ncccn2)cc1)(C(=O)OCC)C(F)(F)F` (stereo unspecified), the EC50 is more than 200 µM and the IC50 was more than 200 µM.
As for `CCOP(=O)(OCC)/C(C#N)=C/c1cc(O)ccc1O`, the EC50 was more than 832 µM and the IC50 turned out to be 145 µM.
The matching figures for `O=c1c2cccc3c4ccccc4c4sc5ccccc5n1-c4c23`: more than 11.5 µM and more than 11.5 µM.
As to `CP1(=O)CC(=O)CCCCC(=O)C1`, the outcome was inactive.
Turning to `CCCCNC1CCCCC[C@H]1O` (stereo partly specified), the EC50 is more than 1120 µM and the IC50 was more than 1120 µM.
For `CC(Cc1ccccc1)Nc1ncnc2c1ncn2C1OC(CO)CC1O` (stereo unspecified), the result was inactive.
Consider `Brc1ccc(C[N+]23CN4CN(CN(C4)C2)C3)cc1`, for which the result was inactive.
On to `O=S1OC(c2ccccc2)(c2ccccc2)C(c2ccccc2)(c2ccccc2)O1`, for which the EC50 is more than 16.2 µM and the concentration for half-maximal inhibition (IC50) is more than 16.2 µM.
As to `Cc1ccc(NC(=O)CCC(=O)C2CC(=O)CC/C2=N\NC(=O)c2cc3ccccc3cc2O)cc1C` (stereo unspecified), the EC50 is more than 363 µM and the IC50 was determined as 12.9 µM.
For `C=CC1OC(CCCOC(=O)C(C)(C)C)O[C@@H]1CC` (stereo partly specified), in that order: more than 200 µM and more than 200 µM.
The matching figures for `Cc1cc(S(=O)(=O)Nc2nnc3c4scc(C)c4ncn23)c(S)cc1Cl`: 45.7 µM and 50.1 µM.
As to `CC[C@@H]1C[C@@H](O)[C@@H]2[C@H](O)[C@H](O)CN2C1`, the EC50 was more than 200 µM and the IC50 is more than 200 µM.
On to `O=c1cc(-c2ccccc2)c2cc3c(=O)ccoc3cc2o1`, for which the EC50 was more than 3.47 µM and the IC50 was more than 3.47 µM.
As for `c1ccc(CSC2(SCc3ccccc3)CCCCC2)cc1`, the EC50 is more than 200 µM and the IC50 came out at 77.6 µM.
In the case of `CC(C)=CCC[C@@H](C)C1=C(O)C(Nc2ccccc2)=C(C)C(=O)C1=O`, the EC50 was more than 200 µM and the IC50 was found to be 13.2 µM.
The matching figures for `CCC1(CC(=O)N(C)C)C=CCN(C(=O)Oc2ccccc2)C1` (stereo unspecified): more than 58.9 µM and more than 58.9 µM.
For the molecule `NC(N)=NS(=O)(=O)c1ccc(NNC(=O)c2cccc3c(=O)c4ccccc4[nH]c23)cc1`, the EC50 was more than 200 µM and the 50% inhibitory concentration (IC50) was 33.9 µM.
Regarding `COc1cc(C2C(Cl)C(=O)N2NC(=O)c2ccc(NC(C)=O)cc2)cc(OC)c1OC` (stereo unspecified), the EC50 is more than 200 µM and the IC50 is more than 200 µM.
For `CC(Br)(c1ccccc1)[P+](c1ccccc1)(c1ccccc1)c1ccccc1` (stereo unspecified), the EC50 is more than 20 µM and the IC50 amounted to 0.871 µM.
Regarding `Cc1ccc(Sc2cc([N+](=O)[O-])cc(Sc3ccc(C)cc3)c2Sc2ccc(C)cc2)cc1`, the EC50 was more than 3.72 µM and the IC50 is more than 3.72 µM.
Consider `O=C1NC(=NC2CCCCC2)C2(CCN(CCCC3(c4ccc(F)cc4)OCCO3)CC2)N1c1ccccc1`, for which the EC50 was more than 200 µM and the concentration for half-maximal inhibition (IC50) was 102 µM.
The matching figures for `CS/C(C)=N/OC(=O)NCCCCNc1ccc(N=[N+]=[N-])cc1`: more than 148 µM and 34.7 µM.
As to `c1ccc2c(c1)CCc1c-2n(CCN2CCCCC2)c2ccccc12`, the EC50 is more than 200 µM and the concentration for half-maximal inhibition (IC50) was 10.7 µM.
The matching figures for `Cc1cccc2c1C(=O)C1(Cc3ccccc3C1=O)C2` (stereo unspecified): more than 200 µM and more than 200 µM.
For `O=C(O)COc1ccc(C(=O)/C(SS/C(C(=O)c2ccc(OCC(=O)O)c(Cl)c2Cl)=C2\C=C(c3ccc(F)cc3)SS2)=C2/C=C(c3ccc(F)cc3)SS2)c(Cl)c1Cl`, in that order: more than 37.2 µM and more than 37.2 µM.
In the case of `c1ccc(CN(Cc2ccccn2)Cc2ccccn2)nc1`, the EC50 was more than 200 µM and the IC50 is 3.16 µM.
For `O=C1C2CCc3cnn(-c4ccccc4)c3C2C(=O)N1c1ccccc1` (stereo unspecified), the EC50 was more than 200 µM and the IC50 was more than 200 µM.
As to `COC(=O)C(=O)C(C(=O)OC)C(=O)C(=O)Nc1cc(Cl)c(C)cc1S(=O)(=O)O` (stereo unspecified), the EC50 is more than 575 µM and the 50% inhibitory concentration (IC50) is more than 575 µM.
On to `Cc1nc(Nc2ccc([N+](=O)[O-])cc2)sc1C(/C=C/c1ccc(N(C)C)cc1)=N/NC(=O)c1ccccc1`, for which the EC50 is more than 13.8 µM and the half-maximal inhibitory concentration (IC50) was more than 13.8 µM.
For `O=S(Cc1ccccn1)c1nc2ccccc2nc1-c1ccccc1` (stereo unspecified), the EC50 is more than 28.8 µM and the IC50 was more than 28.8 µM.
On to `CC(C)(c1cccs1)c1cscc1C(=O)O`, for which the EC50 is more than 200 µM and the IC50 was more than 200 µM.
As to `NS(=O)(=O)c1ccc(N=NC2Sc3nc4ccccc4n3C2=O)cc1` (stereo unspecified), the result was inactive.
As to `CCN(CC)C1Oc2cc3c(cc2C(c2cc(OC)c(OC)c(OC)c2)C1C)OCO3` (stereo unspecified), the EC50 is more than 100 µM and the IC50 is 0.537 µM.
With `CN1C(=O)c2c(c3c4ccccc4n(C4OC(CO)C(O)C(O)C4O)c3c3[nH]c4ccccc4c23)C1=O` (stereo unspecified), the EC50 is more than 200 µM and the IC50 stood at 3.89 µM.
For `CCC(=O)/C=C/c1ccccc1`, the EC50 is more than 200 µM and the IC50 was 93.3 µM.
On to `COc1ccc(C2OC(=O)c3ccc4ccccc4c32)c(C)c1` (stereo unspecified), for which the EC50 was more than 44.7 µM and the IC50 turned out to be 24.5 µM.
The matching figures for `O=C(CS)Nc1cccc(O)c1`: more than 200 µM and more than 200 µM.
Consider `Cc1ccc2cc(N)c3ccc(C)nc3c2n1`, for which the EC50 is more than 2 µM and the IC50 is 0.309 µM.
Regarding `COC(=O)C1=C(C(=O)OC)C(C(=O)OC)C(C(=O)OC)C(C(=O)OC)(C(=O)OC)C(C(=O)OC)=C1C(=O)OC` (stereo unspecified), the result was inactive.
`CC(=O)OCCCOCn1cc(C)c(=O)[nH]c1=O`: the EC50 is more than 200 µM and the IC50 was more than 200 µM.
Regarding `NCCN.[O-][Cl+3]([O-])([O-])[O-].[Pd+2].c1ccc(-c2ccccn2)nc1`, the EC50 is more than 200 µM and the IC50 turned out to be 30.2 µM.
Turning to `COc1nc2nc(C(O)C(O)CO)cnc2c(=O)n1C` (stereo unspecified), the EC50 is more than 891 µM, the outcome was inactive and the IC50 was more than 891 µM.
With `Cc1ccc(S(=O)(=O)N2CCC2c2ccccc2)cc1` (stereo unspecified), the outcome was inactive.
For `C=CCCC(=O)CC(=O)OC`, the EC50 was more than 1580 µM and the IC50 was more than 1580 µM.
In the case of `COc1ccc(N=C/C=C/C(=C/COC(C)=O)OC(C)=O)cc1`, the EC50 is more than 200 µM and the IC50 stood at 11.5 µM.
The matching figures for `C/C=C1/CN2CCc3c4n(c5ccccc35)[C@@H](CO)C1CC42` (stereo partly specified): more than 61.7 µM and more than 61.7 µM.
For the molecule `CCN(CC)/C(Sc1ccccc1)=C(\C(Cl)=C(Cl)Cl)[N+](=O)[O-]`, the EC50 was more than 200 µM and the IC50 was 12.3 µM.
In the case of `COc1cccc(N(CN2CC=CC2=O)C(C)=O)c1`, the outcome was inactive.
Take `N[C@H]1c2c(Cl)cccc2C(=O)[C@H]1O`: the EC50 was more than 200 µM and the half-maximal inhibitory concentration (IC50) was 11 µM.
The matching figures for `NC(=O)C(=CNC(=S)Nc1cccc(C(F)(F)F)c1)C(N)=O`: more than 200 µM and more than 200 µM.
The matching figures for `Cc1cc(NS(=O)(=O)c2ccc(N=Nc3c(Nc4ccccc4)nn(-c4ccc(S(=O)(=O)Nc5ccncn5)cc4)c3C)cc2)no1`: more than 200 µM and more than 200 µM.

As a reminder, the EC50 is the midpoint of the concentration-response curve. One may read the IC50 as the midpoint of a concentration-inhibition curve.
